Test [1] concerns the target AR / CBP ternary complex (Homo sapiens, UniProt P10275+Q92793). In words: Ternary complex formation assay (sandwich ELISA, AR capture, CBP antibody detection) in VCaP cell lysates. The format is cell-based. In outline:
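Sandwich ELISA: plates were coated with anti-AR antibody (AR441) and given lysates of VCaP cells treated 1.5 h with bifunctional compound in charcoal-stripped serum. Co-captured CBP or p300 was probed with rabbit mAbs and HRP secondary. Chemifluorescent signal (ex 570/em 585) was read at 0, 5 and 15 min.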

Test [2] relates to VCaP cells. The test can be described thus: VCaP growth inhibition assay (CTG). Particulars: Homo sapiens, 216 h, 30 pM R1881, 9 days. The format is cell-based. The procedure, abridged: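 Growth was measured by CTG luminescence after a 9-day exposure of VCaP cells to compound (final 10 fM–100 nM, fivefold steps) in the presence of 30 pM final R1881, in phenol red-free DMEM/5% CSS. IC50 values were derived by nonlinear 4-parameter regression of RLU against concentration.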

Setting [3] is: treated 1.5 hours, rabbit CBP or p300 antibody detection, average, read-out: Average Ternary Complex.
[4] abbreviates: read-out: Average Ternary Complex, treated 1.5 hours, rabbit CBP or p300 antibody detection.

Molecules are shown by their SMILES. Read-outs that look alike come from different tables or passages of the source. Some results are limits rather than exact numbers.

Sequence of AR / CBP ternary complex (P10275 whole entry): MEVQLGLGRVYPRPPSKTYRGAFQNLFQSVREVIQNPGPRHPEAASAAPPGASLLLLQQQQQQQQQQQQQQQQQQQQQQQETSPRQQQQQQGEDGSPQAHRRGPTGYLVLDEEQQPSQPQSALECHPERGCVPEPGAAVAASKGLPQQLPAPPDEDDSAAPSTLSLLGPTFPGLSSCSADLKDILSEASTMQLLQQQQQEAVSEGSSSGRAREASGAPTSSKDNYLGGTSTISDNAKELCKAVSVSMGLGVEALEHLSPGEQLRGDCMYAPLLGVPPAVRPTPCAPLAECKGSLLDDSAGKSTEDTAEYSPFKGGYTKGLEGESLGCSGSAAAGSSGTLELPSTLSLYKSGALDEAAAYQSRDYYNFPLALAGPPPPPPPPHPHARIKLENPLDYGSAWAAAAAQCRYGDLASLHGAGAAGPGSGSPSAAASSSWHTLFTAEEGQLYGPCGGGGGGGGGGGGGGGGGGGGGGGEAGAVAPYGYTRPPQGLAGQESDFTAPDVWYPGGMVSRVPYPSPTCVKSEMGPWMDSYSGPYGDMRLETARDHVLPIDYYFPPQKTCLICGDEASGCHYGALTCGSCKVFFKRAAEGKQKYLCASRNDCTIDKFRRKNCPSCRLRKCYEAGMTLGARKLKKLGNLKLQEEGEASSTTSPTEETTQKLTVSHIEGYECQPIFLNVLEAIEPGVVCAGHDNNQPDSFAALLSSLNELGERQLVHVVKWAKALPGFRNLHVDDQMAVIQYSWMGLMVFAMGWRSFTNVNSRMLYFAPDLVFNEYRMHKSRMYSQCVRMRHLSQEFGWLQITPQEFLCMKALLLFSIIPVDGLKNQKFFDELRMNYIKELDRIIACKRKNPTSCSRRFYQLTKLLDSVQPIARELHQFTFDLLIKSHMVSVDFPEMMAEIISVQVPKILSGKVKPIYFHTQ
Sequence of AR / CBP ternary complex (Q92793 2-2442): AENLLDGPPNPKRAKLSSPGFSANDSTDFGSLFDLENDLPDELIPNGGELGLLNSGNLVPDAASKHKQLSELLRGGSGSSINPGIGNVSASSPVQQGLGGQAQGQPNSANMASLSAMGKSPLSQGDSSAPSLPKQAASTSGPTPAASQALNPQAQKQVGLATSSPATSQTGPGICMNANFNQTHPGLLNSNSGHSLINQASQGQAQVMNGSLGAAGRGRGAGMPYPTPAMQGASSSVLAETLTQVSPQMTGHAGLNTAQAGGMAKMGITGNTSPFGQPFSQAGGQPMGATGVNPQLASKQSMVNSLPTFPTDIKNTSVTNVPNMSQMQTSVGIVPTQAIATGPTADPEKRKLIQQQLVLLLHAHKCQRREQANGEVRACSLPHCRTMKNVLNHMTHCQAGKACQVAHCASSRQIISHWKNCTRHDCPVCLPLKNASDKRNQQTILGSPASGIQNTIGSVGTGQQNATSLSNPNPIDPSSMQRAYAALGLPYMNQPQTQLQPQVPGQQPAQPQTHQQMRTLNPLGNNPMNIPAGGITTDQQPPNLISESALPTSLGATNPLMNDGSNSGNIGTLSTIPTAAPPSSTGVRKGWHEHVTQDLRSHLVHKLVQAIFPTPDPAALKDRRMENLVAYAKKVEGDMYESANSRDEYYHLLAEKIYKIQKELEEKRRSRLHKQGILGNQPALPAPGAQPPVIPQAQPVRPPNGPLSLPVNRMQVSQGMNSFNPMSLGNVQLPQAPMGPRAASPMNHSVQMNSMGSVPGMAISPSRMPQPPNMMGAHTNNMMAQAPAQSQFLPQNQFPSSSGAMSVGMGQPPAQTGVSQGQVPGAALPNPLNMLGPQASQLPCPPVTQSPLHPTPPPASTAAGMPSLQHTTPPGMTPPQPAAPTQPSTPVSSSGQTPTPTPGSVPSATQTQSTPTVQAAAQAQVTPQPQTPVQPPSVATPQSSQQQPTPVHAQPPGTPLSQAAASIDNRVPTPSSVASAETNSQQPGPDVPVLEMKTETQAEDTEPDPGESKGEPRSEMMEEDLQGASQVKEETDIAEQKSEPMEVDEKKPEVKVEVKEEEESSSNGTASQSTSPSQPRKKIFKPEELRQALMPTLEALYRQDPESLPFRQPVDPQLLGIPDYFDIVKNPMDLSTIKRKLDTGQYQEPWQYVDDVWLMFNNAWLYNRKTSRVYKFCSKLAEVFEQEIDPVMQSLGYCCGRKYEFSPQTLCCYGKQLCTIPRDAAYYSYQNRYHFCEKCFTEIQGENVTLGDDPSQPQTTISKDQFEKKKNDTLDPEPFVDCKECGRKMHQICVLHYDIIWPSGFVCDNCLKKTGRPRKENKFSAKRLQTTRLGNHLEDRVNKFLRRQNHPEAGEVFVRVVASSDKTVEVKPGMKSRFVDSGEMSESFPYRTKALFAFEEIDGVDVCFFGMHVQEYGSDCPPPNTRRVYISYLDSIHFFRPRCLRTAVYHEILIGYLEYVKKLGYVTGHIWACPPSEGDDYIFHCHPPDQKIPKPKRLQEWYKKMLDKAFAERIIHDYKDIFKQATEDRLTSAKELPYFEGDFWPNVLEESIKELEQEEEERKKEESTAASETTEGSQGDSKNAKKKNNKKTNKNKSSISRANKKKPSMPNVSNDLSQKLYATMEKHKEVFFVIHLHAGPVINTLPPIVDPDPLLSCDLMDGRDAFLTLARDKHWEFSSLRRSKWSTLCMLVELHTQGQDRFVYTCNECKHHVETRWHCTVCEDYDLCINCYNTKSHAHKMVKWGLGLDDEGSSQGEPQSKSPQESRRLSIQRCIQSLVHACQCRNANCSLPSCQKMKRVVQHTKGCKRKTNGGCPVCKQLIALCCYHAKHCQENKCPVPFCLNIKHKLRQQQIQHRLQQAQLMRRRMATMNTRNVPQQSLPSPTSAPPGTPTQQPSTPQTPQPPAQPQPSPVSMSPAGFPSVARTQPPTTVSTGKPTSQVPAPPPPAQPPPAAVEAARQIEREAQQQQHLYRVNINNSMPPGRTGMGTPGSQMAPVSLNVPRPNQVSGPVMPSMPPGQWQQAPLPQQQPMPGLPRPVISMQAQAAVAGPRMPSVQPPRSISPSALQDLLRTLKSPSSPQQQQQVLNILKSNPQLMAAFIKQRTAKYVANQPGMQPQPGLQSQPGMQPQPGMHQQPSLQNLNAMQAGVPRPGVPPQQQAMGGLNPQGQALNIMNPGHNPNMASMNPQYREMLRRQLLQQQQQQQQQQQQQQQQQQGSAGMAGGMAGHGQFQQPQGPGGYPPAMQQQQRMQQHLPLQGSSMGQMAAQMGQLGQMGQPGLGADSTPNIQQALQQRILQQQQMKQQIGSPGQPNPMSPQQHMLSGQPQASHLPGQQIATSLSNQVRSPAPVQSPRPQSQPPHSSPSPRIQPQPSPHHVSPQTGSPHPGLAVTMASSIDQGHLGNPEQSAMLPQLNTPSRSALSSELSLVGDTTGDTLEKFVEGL

As a reminder, the IC50 is the concentration that inhibits the measured activity by half. Low values mean greater potency in that assay, high ones weaker potency in that assay. As to `CC(=O)N1CCc2c(c(N3CCCc4cc(-c5cnn(C)c5)c(C(F)F)cc43)nn2C2CCN([C@@H]3CCN(c4ccc(C(=O)N[C@H]5CC[C@H](Oc6ccc(C#N)c(Cl)c6)CC5)nn4)C3)CC2)C1` [Compound 222, 6-[(3R)-3-[4-[5-acetyl-3-[7-(difluoromethyl)-6-(1-methylpyrazol-4-yl)-3,4-dihydro-2H-quinolin-1-yl]-6,7-dihydro-4H-pyrazolo[4,3-c]pyridin-1-yl]-1-piperidyl]pyrrolidin-1-yl]-N-[4-(3-chloro-4-cyano-phenoxy)cyclohexyl] pyridazine-3-carboxamide], the EC50 in test [1] (setting [3]) is below 1 nM. In addition, in test [2], the IC50 lay within 0.1 to 1 nM.
As to `COC(=O)N1c2ccc3c(nc(Cc4ccccc4)n3[C@@H]3CCC[C@H](OCC4CCN(c5ccc(C(=O)N[C@H]6CC[C@H](Oc7ccc(C#N)c(Cl)c7)CC6)nn5)CC4)C3)c2CC[C@@H]1C` [Compound 257], in test [1] (setting [3]), the EC50 lay in the range of 1 to 10 nM. The IC50 in test [2] was in the range of 0.1 to 1 nM.
In the same order, the values of `C[C@@H]1CC(=O)Nc2cc(C3CCN(CC4CCN(c5ccc(C(=O)N[C@H]6CC[C@H](Oc7ccc(C#N)c(Cl)c7)CC6)nn5)CC4)CC3)cc(-c3ccc4c(c3)c(-c3cnn(C)c3)nn4C)c2N1` [Compound 87, N-[4-(3-chloro-4-cyano-phenoxy)cyclohexyl]-6-[4-[[4-[(4R)-4-methyl-6-[1-methyl-3-(1-methylpyrazol-4-yl)indazol-5-yl]-2-oxo-1,3,4,5-tetrahydro-1,5-benzodiazepin-8-yl]-1-piperidyl]methyl]-1-piperidyl]pyridazine-3-carboxamide] are below 1 nM and at most 0.1 nM.
On to `CC(=O)N1CCc2c(c(N3CCCc4cc(-c5cnn(C)c5)c(C(F)F)cc43)nn2[C@@H]2CCN(CC3CCN(c4ccc(C(=O)N[C@H]5CC[C@H](Oc6ccc(C#N)c(Cl)c6)CC5)nn4)CC3)C[C@@H]2F)C1` [Compound 144, 6-[4-[[(3S,4R)-4-[5-acetyl-3-[7-(difluoromethyl)-6-(1-methylpyrazol-4-yl)-3,4-dihydro-2H-quinolin-1-yl]-6,7-dihydro-4H-pyrazolo[4,3-c]pyridin-1-yl]-3-fluoro-1-piperidyl]methyl]-1-piperidyl]-N-[4-(3-chloro-4-cyano-phenoxy)cyclohexyl] pyridazine-3-carboxamide], for which, in test [1] (setting [3]), the EC50 is below 1 nM. This compound displayed an IC50 in test [2] of at most 0.1 nM.
On the same counts, the results for `CC(=O)N1CCc2c(c(N3CCCc4cc(C#N)ncc43)nn2C2CCN(CC3CCN(c4ccc(C(=O)N[C@H]5CC[C@H](Oc6ccc(C#N)c(Cl)c6)CC5)nn4)CC3)CC2)C1` [Compound 68, 6-[4-[[4-[5-acetyl-3-(6-cyano-3,4-dihydro-2H-1,7-naphthyridin-1-yl)-6,7-dihydro-4H-pyrazolo[4,3-c]pyridin-1-yl]-1-piperidyl]methyl]-1-piperidyl]-N-[4-(3-chloro-4-cyano-phenoxy)cyclohexyl]pyridazine-3-carboxamide] are below 1 nM and at most 0.1 nM.
As for `CC(=O)N1CCc2c(c(N3CCCc4cc(-c5cnn(C)c5)c(C(F)F)cc43)nn2C2CCN(C(=O)COC3CCN(c4ccc(C(=O)N[C@H]5CC[C@H](N(C)c6ccc(C#N)c(Cl)c6)CC5)cc4)CC3)CC2)C1` [Compound 12, 4-[4-[2-[4-[5-acetyl-3-[7-(difluoromethyl)-6-(1-methylpyrazol-4-yl)-3,4-dihydro-2H-quinolin-1-yl]-6,7-dihydro-4H-pyrazolo[4,3-c]pyridin-1-yl]-1-piperidyl]-2-oxo-ethoxy]-1-piperidyl]-N-[4-(3-chloro-4-cyano-N-methyl-anilino)cyclohexyl]benzamide], the EC50 in test [1] (setting [4]) was below 1 nM. The compound further registered an IC50 in test [2] of at most 0.1 nM.
For the compound `CC(=O)N1CCc2c(c(N3CCCc4cc(-c5cnn(C)c5)c(C(F)F)cc43)nn2C2CCN(C3CCN(c4ccc(C(=O)N[C@H]5CC[C@H](Oc6ccc(C#N)c(Cl)c6)CC5)nn4)CC3(F)F)CC2)C1` (stereo partly drawn) [Compound 198, 6-[4-[4-[5-acetyl-3-[7-(difluoromethyl)-6-(1-methylpyrazol-4-yl)-3,4-dihydro-2H-quinolin-1-yl]-6,7-dihydro-4H-pyrazolo[4,3-c]pyridin-1-yl]-1-piperidyl]-3,3-difluoro-1-piperidyl]-N-[4-(3-chloro-4-cyano-phenoxy)cyclohexyl]pyridazine-3-carboxamide], the EC50 in test [1] (setting [3]) is below 1 nM. This compound showed an IC50 in test [2] of at most 0.1 nM.
In the same order, the values of `COC(=O)N1c2ccc3c(nc(Cc4ccccc4)n3[C@@H]3CCC[C@H](OCCN4CCN(c5ccc(C(=O)N[C@H]6CC[C@H](Oc7ccc(C#N)c(Cl)c7)CC6)nn5)CC4)C3)c2CC[C@@H]1C` [Compound 270, methyl (7S)-2-benzyl-3-[3-[2-[4-[6-[[4-(3-chloro-4-cyano-phenoxy)cyclohexyl]carbamoyl]pyridazin-3-yl]piperazin-1-yl]ethoxy]cyclohexyl]-7-methyl-8,9-dihydro-7H-imidazo[4,5-f]quinoline-6-carboxylate] are 1 to 10 nM and 1 to 100 nM.
For `CC(=O)N1CCc2c(c(N3CCCc4cc(-c5cnn(C)c5)c(C(F)F)cc43)nn2C2CCN(C(=O)C3CCN(c4ccc(C(=O)N[C@H]5CC[C@H](Oc6ccc(C#N)c(Cl)c6)CC5)cn4)CC3)CC2)C1` [Compound 158, 6-[4-[4-[5-acetyl-3-[7-(difluoromethyl)-6-(1-methylpyrazol-4-yl)-3,4-dihydro-2H-quinolin-1-yl]-6,7-dihydro-4H-pyrazolo[4,3-c]pyridin-1-yl]piperidine-1-carbonyl]-1-piperidyl]-N-[4-(3-chloro-4-cyano-phenoxy)cyclohexyl]pyridine-3-carboxamide], the EC50 in test [1] (setting [3]) lay in the range of 1 to 10 nM. In addition, in test [2], the concentration for half-maximal inhibition (IC50) was in the range of 0.1 to 1 nM.
For the compound `CC(=O)N1CCc2c(c(-c3cccc4nc(-c5ccc(CCC6CCN(c7ccc(C(=O)N[C@H]8CC[C@H](Oc9ccc(C#N)c(Cl)c9)CC8)nn7)CC6)nc5)ncc34)nn2C2CCOCC2)C1` [Compound 73, 6-[4-[2-[5-[5-(5-acetyl-1-tetrahydropyran-4-yl-6,7-dihydro-4H-pyrazolo[4,3-c]pyridin-3-yl)quinazolin-2-yl]-2-pyridyl]ethyl]-1-piperidyl]-N-[4-(3-chloro-4-cyano-phenoxy)cyclohexyl]pyridazine-3-carboxamide], the EC50 in test [1] (setting [3]) is below 1 nM. The compound further displayed a half-maximal inhibitory concentration (IC50) in test [2] of at most 0.1 nM.
In the same order, the values of `CC(=O)N1CCc2c(c(N3CCCc4cc(-c5cnn(C)c5)c(C(F)F)cc43)nn2C2CCN(C3CN(c4ccc(C(=O)N[C@H]5CC[C@H](Oc6ccc(C#N)c(Cl)c6)CC5)nn4)C3)CC2)C1` [Compound 206, 6-[3-[4-[5-acetyl-3-[7-(difluoromethyl)-6-(1-methylpyrazol-4-yl)-3,4-dihydro-2H-quinolin-1-yl]-6,7-dihydro-4H-pyrazolo[4,3-c]pyridin-1-yl]-1-piperidyl]azetidin-1-yl]-N-[4-(3-chloro-4-cyano-phenoxy)cyclohexyl]pyridazine-3-carboxamide] are below 1 nM and at most 0.1 nM.
On the same counts, the results for `CC(=O)N1CCc2c(c(-c3cccc4cc(-c5ccc(CCN6CCN(c7ccc(C(=O)N[C@H]8CC[C@H](Oc9ccc(C#N)c(Cl)c9)CC8)nn7)CC6)nc5)ncc34)nn2C)C1` [Compound 30, 6-[4-[2-[5-[8-(5-acetyl-1-methyl-6,7-dihydro-4H-pyrazolo[4,3-c]pyridin-3-yl)-3-isoquinolyl]-2-pyridyl]ethyl]piperazin-1-yl]-N-[4-(3-chloro-4-cyano-phenoxy)cyclohexyl]pyridazine-3-carboxamide] are below 1 nM and at most 0.1 nM.
For the compound `CC(=O)N1CCc2c(c(-c3cccc4cc(-c5cnn(CC6CC7(C6)CN(c6ccc(C(=O)N[C@H]8CC[C@H](Oc9ccc(C#N)c(Cl)c9)CC8)nn6)C7)c5)ncc34)nn2C)C1` [Compound 47, 6-[6-[[4-[8-(5-acetyl-1-methyl-6,7-dihydro-4H-pyrazolo[4,3-c]pyridin-3-yl)-3-isoquinolyl]pyrazol-1-yl]methyl]-2-azaspiro[3.3]heptan-2-yl]-N-[4-(3-chloro-4-cyano-phenoxy)cyclohexyl]pyridazine-3-carboxamide], the EC50 in test [1] (setting [4]) lay in the range of 1 to 10 nM. The IC50 in test [2] lay in the range of 0.1 to 1 nM.
`CC(=O)N1CCc2c(c(-c3cccc4cc(-c5cnn(CCOC6CC7(C6)CN(c6ccc(C(=O)N[C@H]8CC[C@H](Oc9ccc(C#N)c(Cl)c9)CC8)nn6)C7)c5)ncc34)nn2C)C1` [Compound 64, 6-[6-[2-[4-[8-(5-acetyl-1-methyl-6,7-dihydro-4H-pyrazolo[4,3-c]pyridin-3-yl)-3-isoquinolyl]pyrazol-1-yl]ethoxy]-2-azaspiro[3.3]heptan-2-yl]-N-[4-(3-chloro-4-cyano-phenoxy)cyclohexyl]pyridazine-3-carboxamide]: in test [1] (setting [3]), the EC50 fell in the range of 1 to 10 nM. This compound also had an IC50 in test [2] of 0.1 to 1 nM.
In the same order, the values of `CC(=O)N1CCc2c(c(N3CCCc4cc(-c5cnn(C)c5)c(C(F)F)cc43)nn2C2CC3(C2)CN(C(=O)C2CC4(C2)CN(c2ccc(C(=O)N[C@H]5CC[C@H](Oc6ccc(C#N)c(Cl)c6)CC5)nn2)C4)C3)C1` (stereo partly drawn) [Compound 40, 6-[6-[6-[5-acetyl-3-[7-(difluorodimethyl)-6-(1-methylpyrazol-4-yl)-3,4-dihydro-2H-quinolin-1-yl]-6,7-dihydro-4H-pyrazolo[4,3-c]pyridin-1-yl]-2-azaspiro[3.3]heptane-2-carbonyl]-2-azaspiro[3.3]heptan-2-yl]-N-[4-(3-chloro-4-cyano-phenoxy)cyclohexyl]pyridazine-3-carboxamide] are 1 to 10 nM and 0.1 to 1 nM.

The values are drawn from patent US20250136578A1 (Kolm Therapeutics Inc., priority 2023, published 2025).
